# Earlier results in patent US20130129859A1, “DOSING PROTOCOLS FOR INCREASING PROTEIN SYNTHESIS IN AN ACTIVE INDIVIDUAL” (priority 2009, published 2013).
substance,measurement,setting,value
casein,Whole-body protein synthesis,previously discussed study,best with casein
same,"Leucine balance, slow versus fast protein meal matched for leucine content","young, healthy subjects",higher leucine balance
